Literature values, collected in patent publication US20060111442A1, “Use of methyl pyruvate to increase cellular energy production downstream of glycolysis for the PARP-1 ablation of HIV without necrotic cell death caused by continuous, chronic PARP-1 activation through the concomitant depletion of ATP and NAD” (priority 2004, published 2006).
Where two headings read alike, the source gives them in different places.

Legend:
[1] = 30 mg/kg i.p. 30 min prior to rosiglitazone
[2] = tested on: human non-small cell lung carcinoma cell lines (H1838 and H2106)
[3] = tested on: human neuroblastoma cells (SK-N-SH and SK-N-MC); details: for 15-deoxy-PGJ2-induced cell growth inhibition: co-treatment
PPARgamma [4] = target: T1, PPARgamma (Homo sapiens, UniProt P37231); design: endogenous in cells; host or cells: human mammary tumour cell lines
T1 sequence (P37231 1-505): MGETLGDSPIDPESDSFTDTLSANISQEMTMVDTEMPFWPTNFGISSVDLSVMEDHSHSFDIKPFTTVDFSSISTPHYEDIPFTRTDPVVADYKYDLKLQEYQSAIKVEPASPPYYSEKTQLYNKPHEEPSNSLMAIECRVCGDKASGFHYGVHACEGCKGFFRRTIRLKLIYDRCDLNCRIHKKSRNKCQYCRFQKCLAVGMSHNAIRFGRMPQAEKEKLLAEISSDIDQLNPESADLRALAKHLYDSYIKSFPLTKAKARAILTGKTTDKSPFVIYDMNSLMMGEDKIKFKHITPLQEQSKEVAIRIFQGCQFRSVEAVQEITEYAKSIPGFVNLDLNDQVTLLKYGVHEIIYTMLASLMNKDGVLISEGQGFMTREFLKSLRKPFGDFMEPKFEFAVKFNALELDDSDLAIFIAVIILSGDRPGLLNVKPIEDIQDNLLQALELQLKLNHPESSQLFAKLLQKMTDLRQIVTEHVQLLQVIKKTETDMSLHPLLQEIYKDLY

[5] = tested on: human mammary tumour cell lines
[6] = tested on: hepatic stellate cells (HSC)
[7] = tested on: porcine carotid artery strips; details: for change in resting tone: 10 mM KCl
[8] = tested on: primary astrocyte cultures; details: for MPT and cell death: after PARP-1 activation, cyclosporin A sub-micromolar
THP-1 monocytic cells = details: PMA-stimulated
[9] = tested on: human glioblastoma cell lines (A172, U87-MG, M059K, M059J); details: all cell lines
[10] = tested on: Mouse neuron and astrocyte cultures; details: for NAD(+) depletion resulting from PARP1 activation: MNNG or H(2)O(2); for poly(ADP-ribose) accumulation: during MNNG exposure, immunostaining; for Cell death: hydrogen peroxide, NMDA or MNNG exposure
PPARgamma [11] = target: T1, PPARgamma; design: expressed in transfected cells
PPARalpha = target: T2, PPARalpha (Homo sapiens, UniProt Q07869)
T2 construct: expressed in transfected cells

[12] = mouse, in vivo
[13] = not given; remark: listed apart in the source
[14] = tested on: Jurkat T-lymphocyte mitochondria
[15] = tested on: isolated rat pancreatic islets
K(ATP) channels = target: T3, K(ATP) channels (Homo sapiens, UniProt Q09428+Q14654); details: standard whole-cell configuration
T3 construct: endogenous in cells; host or cells: pancreatic beta-cells

[16] = tested on: isolated beta-cell mitochondria; details: with glutamate, vs pyruvate/glutamate
[17] = tested on: rat aortic vascular smooth muscle cell; details: 0.1-10 microM
[18] = human, in vivo

T2 sequence (Q07869 whole entry, species assumed): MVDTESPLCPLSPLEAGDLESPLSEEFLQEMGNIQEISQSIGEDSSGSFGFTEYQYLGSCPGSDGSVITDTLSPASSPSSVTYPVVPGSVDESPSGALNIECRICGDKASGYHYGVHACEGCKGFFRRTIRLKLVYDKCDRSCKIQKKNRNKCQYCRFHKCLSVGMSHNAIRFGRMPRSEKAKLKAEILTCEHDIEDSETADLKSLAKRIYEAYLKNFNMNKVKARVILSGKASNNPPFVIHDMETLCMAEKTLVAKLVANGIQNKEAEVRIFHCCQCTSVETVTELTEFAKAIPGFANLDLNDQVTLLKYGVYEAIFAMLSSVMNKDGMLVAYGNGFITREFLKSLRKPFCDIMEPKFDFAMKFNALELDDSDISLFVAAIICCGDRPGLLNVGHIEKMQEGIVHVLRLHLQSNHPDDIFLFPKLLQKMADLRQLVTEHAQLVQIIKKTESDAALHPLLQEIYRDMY
T3 sequence (Q14654 whole entry): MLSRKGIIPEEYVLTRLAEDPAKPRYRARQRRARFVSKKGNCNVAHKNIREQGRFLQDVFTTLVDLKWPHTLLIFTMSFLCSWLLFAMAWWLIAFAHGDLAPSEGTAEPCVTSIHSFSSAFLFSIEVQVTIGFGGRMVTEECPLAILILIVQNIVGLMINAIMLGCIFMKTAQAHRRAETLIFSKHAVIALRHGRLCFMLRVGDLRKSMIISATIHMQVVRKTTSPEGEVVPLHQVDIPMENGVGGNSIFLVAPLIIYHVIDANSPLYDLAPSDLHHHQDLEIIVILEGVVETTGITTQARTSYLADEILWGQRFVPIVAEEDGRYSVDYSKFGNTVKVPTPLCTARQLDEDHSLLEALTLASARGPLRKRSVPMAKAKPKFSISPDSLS
T3 sequence (Q09428 whole entry): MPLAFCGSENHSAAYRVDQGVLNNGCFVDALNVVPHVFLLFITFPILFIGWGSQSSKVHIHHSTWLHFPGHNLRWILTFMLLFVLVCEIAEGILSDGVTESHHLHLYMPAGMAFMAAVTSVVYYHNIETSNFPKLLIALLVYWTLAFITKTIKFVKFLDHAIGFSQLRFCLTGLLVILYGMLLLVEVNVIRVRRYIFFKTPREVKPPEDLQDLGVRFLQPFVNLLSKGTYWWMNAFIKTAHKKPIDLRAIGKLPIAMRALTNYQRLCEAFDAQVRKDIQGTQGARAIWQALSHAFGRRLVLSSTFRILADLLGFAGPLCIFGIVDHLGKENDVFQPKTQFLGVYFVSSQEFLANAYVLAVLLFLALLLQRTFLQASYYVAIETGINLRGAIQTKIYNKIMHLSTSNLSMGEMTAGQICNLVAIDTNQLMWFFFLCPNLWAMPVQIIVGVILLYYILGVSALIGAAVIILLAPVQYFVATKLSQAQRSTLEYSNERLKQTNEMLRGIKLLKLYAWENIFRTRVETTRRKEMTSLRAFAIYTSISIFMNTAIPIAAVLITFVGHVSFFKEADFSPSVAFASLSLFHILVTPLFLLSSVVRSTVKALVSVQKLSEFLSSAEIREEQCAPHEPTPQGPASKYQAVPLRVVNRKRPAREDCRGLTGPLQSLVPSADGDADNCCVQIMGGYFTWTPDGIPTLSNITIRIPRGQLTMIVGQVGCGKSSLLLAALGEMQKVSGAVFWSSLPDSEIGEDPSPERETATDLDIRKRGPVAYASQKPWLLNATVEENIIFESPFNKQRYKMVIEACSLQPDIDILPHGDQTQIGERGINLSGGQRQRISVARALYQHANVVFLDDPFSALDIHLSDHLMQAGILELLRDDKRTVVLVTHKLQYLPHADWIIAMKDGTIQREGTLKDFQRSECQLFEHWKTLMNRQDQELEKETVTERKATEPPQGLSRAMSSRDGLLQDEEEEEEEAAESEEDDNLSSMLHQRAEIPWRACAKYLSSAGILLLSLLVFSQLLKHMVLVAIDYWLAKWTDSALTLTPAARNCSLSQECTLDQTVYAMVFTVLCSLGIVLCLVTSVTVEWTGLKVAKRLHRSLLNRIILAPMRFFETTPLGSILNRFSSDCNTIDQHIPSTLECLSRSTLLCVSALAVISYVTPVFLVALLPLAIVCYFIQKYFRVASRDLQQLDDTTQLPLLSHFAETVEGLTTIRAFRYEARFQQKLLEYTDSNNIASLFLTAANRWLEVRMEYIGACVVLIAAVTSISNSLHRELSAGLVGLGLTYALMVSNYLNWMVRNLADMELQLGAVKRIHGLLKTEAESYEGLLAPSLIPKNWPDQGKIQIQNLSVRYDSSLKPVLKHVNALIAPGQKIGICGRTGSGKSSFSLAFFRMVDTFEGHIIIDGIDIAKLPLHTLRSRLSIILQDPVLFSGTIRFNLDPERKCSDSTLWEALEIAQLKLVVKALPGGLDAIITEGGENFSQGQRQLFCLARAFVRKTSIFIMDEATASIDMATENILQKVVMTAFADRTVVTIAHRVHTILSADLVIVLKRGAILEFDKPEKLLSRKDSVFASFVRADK

CC(C)CC[C@@H](O)[C@@H](C)[C@H]1CC[C@H]2[C@@H]3CC=C4C[C@@H](O)CC[C@]4(C)[C@H]3CC[C@]12C [22(R)-hydroxycholesterol]
suppressive effects of LXRs on PPARa-induced PPRE-luciferase activity (LXR): dose dependently enhanced

CC(C)(c1ccc(OCC2CO2)cc1)c1ccc(OCC2CO2)cc1 (stereo not shown) [BADGE, bisphenol A diglycidyl ether]
anti-inflammatory effects of rosiglitazone [1]: abolished the anti-inflammatory effects | protective effect of rosiglitazone or 15d-PGJ2 against gut I/R (1 mg kg-1 i.v. 30 min prior to agonist): abolished the protective effect

CCCC1([C@H](O)C/C=C/[C@H]2[C@H](O)CC(=O)[C@@H]2CCCCCCC(=O)OC)CCC1 [Butaprost]
cell growth [2]: increased lung carcinoma cell growth

CN(CCOc1ccc(C[C@H](Nc2ccccc2C(=O)c2ccccc2)C(=O)O)cc1)c1ccccn1 [GW1929]
EP2 mRNA and protein levels [2]: significant decrease | cell growth [2]: inhibition of cell growth

O=C(Nc1ccccc1)c1cc([N+](=O)[O-])ccc1Cl [GW9662, 2-chloro-5-nitro-N-henylbenzamide]
15-deoxy-PGJ2-induced cell growth inhibition [3]: reversed | activation of PPARgamma (PPARgamma [4]): prevented activation of PPARgamma | growth of tumour cell lines [5]: inhibited growth | rosiglitazone-induced growth inhibition ([5]; combination with rosiglitazone): enhanced rather than reversed | abrogation of suppression of HSC collagen by 15dPGJ(2) ([6]; concomitant treatment): 70%

[Cl-].[K+] [KCl]
change in resting tone ([7]; glucose-PSS): -0.8 ± 0.8 g | change in resting tone ([7]; lactate-PSS): 1.5 ± 0.7 g | change in resting tone ([7]; pyruvate-PSS): -2.1 ± 0.8 g

NC(=O)c1ccc[n+]([C@@H]2O[C@H](COP(=O)([O-])OP(=O)(O)OC[C@H]3O[C@@H](n4cnc5c(N)ncnc54)[C@H](O)[C@@H]3O)[C@@H](O)[C@H]2O)c1 [NAD(+)]
translocation of the apoptosis-inducing factor from mitochondria to nuclei [8]: blocked translocation | glycolytic capacity and cell death ([8]; 10 mM extracellular NAD(+) after MNNG exposure): completely restored glycolytic capacity and prevented cell death | MPT and cell death [8]: blocked both MPT and cell death

COc1cccc(-c2cc(=O)c3ccccc3o2)c1N [PD98059, 2′-amino-3′-methoxyflavone]
15-deoxy-PGJ2-induced cell growth inhibition [3]: significantly prevented

CCCCC/C=C/C=C1/C(=O)C=C[C@@H]1C/C=C\CCCC(=O)O [PGJ2, 15-deoxy-Delta12,14-prostaglandin J2]
induction of apoptosis [3]: increased the induction of apoptosis in a dose-dependent manner | cell growth ([3]; both cells): inhibited cell growth in time- and dose-dependent manners | IL-1, IL-6 and TNFalpha secretion (THP-1 monocytic cells): inhibitory effect | IL-1Ra production (THP-1 monocytic cells): increasing IL-1Ra production | nitrotyrosine formation and ICAM-1 upregulation during reperfusion (0.3 mg kg-1 i.v.): markedly reduced | fall in mean arterial blood pressure, mortality rate, MPO activity, MDA levels, TNF-alpha and IL-1 beta, histological gut injury (0.3 mg kg-1 i.v. 30 min prior to ischaemia): significantly reduced | EP2 mRNA and protein levels [2]: significant decrease | cell growth [2]: inhibition of cell growth | proliferation [9]: inhibited proliferation | alpha1 (I) procollagen promoter activity [6]: inhibited | HSC DNA and collagen synthesis ([6]; 10 microm 15dPGJ(2), 0.1 approximately 10 microm BRL49653, WY14643 >100 microm, not <10 microm): inhibited DNA and collagen synthesis without affecting the cell viability

O=S(=O)(c1ccccc1)N(CC(F)(F)F)c1ccc(C(O)(C(F)(F)F)C(F)(F)F)cc1 [T0901317]
suppressive effects of LXRs on PPARa-induced PPRE-luciferase activity (LXR): dose dependently enhanced

NC(=O)c1ccccc1 [benzamide]
NAD(+) depletion resulting from PARP1 activation [10]: prevented the NAD(+) depletion | poly(ADP-ribose) accumulation [10]: decrease | Cell death [10]: markedly reduced

O=C(OC[C@H]1O[C@@H](OC(=O)c2cc(O)c(O)c(OC(=O)c3cc(O)c(O)c(O)c3)c2)[C@H](OC(=O)c2cc(O)c(O)c(OC(=O)c3cc(O)c(O)c(O)c3)c2)[C@@H](OC(=O)c2cc(O)c(O)c(OC(=O)c3cc(O)c(O)c(O)c3)c2)[C@@H]1OC(=O)c1cc(O)c(O)c(OC(=O)c2cc(O)c(O)c(O)c2)c1)c1cc(O)c(O)c(OC(=O)c2cc(O)c(O)c(O)c2)c1 [gallotannin]
NAD(+) depletion resulting from PARP1 activation [10]: prevented the NAD(+) depletion | poly(ADP-ribose) accumulation [10]: increase | Cell death [10]: equally reduced

CC(C)=CCC(=O)C1(O)C(O)=C(C(=O)C(C)C)C(=O)C1CC=C(C)C (stereo not shown) [isocohumulone]
activation of PPARgamma (PPARgamma [11]): activate | activation of PPARalpha (PPARalpha): activate

CC(C)=CCC(=O)C1(O)C(O)=C(C(=O)CC(C)C)C(=O)C1CC=C(C)C (stereo not shown) [isohumulone]
body weight increase versus control group [12]: did not result in significant body weight gain | reduced plasma free fatty acid level [12]: 73.1% | reduced plasma glucose level [12]: 65.3% | reduced plasma triglyceride level [12]: 62.6% | activation of PPARgamma (PPARgamma [11]): activate | activation of PPARalpha (PPARalpha): activate

CC(O)C(=O)O (stereo not shown) [lactate]
increase of O2 consumption ([7]; 10 mm in PSS): without effect

CN(C)C(=N)N=C(N)N [metformin]
HbA1c, insulin, and free fatty acid concentrations ([13]; 8 mg rosiglitazone or 2 g metformin, 16 weeks): similarly decreased | Body weight at 16 weeks ([13]; 2 g metformin, baseline 84+/−4, P<0.05): 82 ± 4 kg | Serum adiponectin concentrations, increase ([13]; 16 weeks): remained unchanged | Liver fat (proton spectroscopy) at 16 weeks ([13]; baseline 15+/−3 rosiglitazone, 13+/−3 metformin): 14+/−3%

COC(=O)C(C)=O [methyl pyruvate]
cation current across the inner membrane [14]: directly inhibited | mitochondrial alkalinization [15]: more marked mitochondrial alkalinization than pyruvate | mitochondrial metabolism compared with pyruvate [15]: more efficient than pyruvate | insulin release ([15]; D-glucose 16.7 mM and/or ester 20.0 mM): negative insulinotropic action | insulin release ([15]; D-glucose 2.8 to 8.3 mM, ester not exceeding 1 0.0 mM): positive insulinotropic action | K(ATP) current (K(ATP) channels): inhibited the K(ATP) current | NADH and NADPH response (pancreatic islets): stimulated a robust NADH and NADPH response | ATP production [16]: higher | NAD(P)H autofluorescence, ATP production, ATP/ADP ratio (pancreatic beta-cells): slightly decreased NAD(P)H autofluorescence and did not influence ATP production or the ATP/ADP ratio | cytosolic free Ca(2+) concentration (pancreatic beta-cells): increased the cytosolic free Ca(2+) concentration after an initial decrease | increase in insulin secretion relative to that induced by glucose (pancreatic beta-cells): 6 fold | electrical activity (pancreatic beta-cells; 0.5 mM glucose): elicited electrical activity | beta-cell membrane depolarization (pancreatic beta-cells; 5-20 mM): depolarized the beta-cell in a concentration-dependent manner | concentration of maximal effect on insulin secretion (pancreatic beta-cells; absence of glucose): 5 mM | insulin secretion (pancreatic beta-cells; absence of glucose, pyruvate 5-20 mM): stimulated insulin secretion | insulin secretion and KATP block (pancreatic beta-cells; islets): block of KATP | ATP/ADP ratio in whole islets (pancreatic beta-cells; pyruvate 5 mM, MP 5 mM, glucose 20 mM): no effect

O=C(O)c1c(Sc2ccccc2)c2cc(Cl)ccc2n1Cc1ccc(Cl)cc1 [nTZDpa]
apoptosis (human coronary VSMCs): induce caspase-mediated apoptosis | vascular smooth muscle cell growth [17]: inhibited vascular smooth muscle cell growth

CCCCCCCC(=O)O [octanoate]
adverse energetic effects of malate-aspartate shuttle inhibition (porcine carotid arteries): normalized

CN(CCOc1ccc(CC2SC(=O)NC2=O)cc1)c1ccccn1 (stereo not shown) [rosiglitazone]
blood counts, viral loads, CD4 counts [18]: no significant changes

cyclosporin A
translocation of the apoptosis-inducing factor from mitochondria to nuclei [8]: blocked translocation | MPT and cell death [8]: blocked MPT and cell death

nobotanin B
Cell death [10]: equally reduced
